Assay results reported in patent US20020094998A1, “Methods and compositions for treatment of ocular neovascularization and neural injury” (priority 2000, published 2002).

Legend:
[1] = system: Brown Norway rats; assay: Electroretinography (a-wave) after verteporfin PDT in rats treated i.p. with agent; type: in vivo, rat; conditions: for A Wave Amplitude PDT Eye: ERG 3-4 hours after PDT; for A Wave Amplitude PDT Eye / A Wave Amplitude Control Eye: N 4; for A Wave Amplitude % Control: PDT eye vs control eye, * p ≦ 0.05 vs vehicle; for A Wave Amplitude Control Eye: eye not treated with PDT; for loss in retinal function induced by PDT: rats, i.p. 1 hour before PDT, a-wave amplitudes
Procedure: Brown Norway rats weighing 200-400 grams were treated intraperitoneally (i.p.) with either brimonidine, AGN 199960, or the saline vehicle. One hour later, the rats were unilaterally treated with PDT and evaluated by electroretinography 3-4 hours later. There were 4 rats in each treatment group.
PDT was conducted as follows: Mydriasis was induced in one eye of each rat with a drop of 0.5% tropicamide. Rats were then anesthetized with isoflurane and placed on a platform in front of a slit lamp coupled to a Coherent diode laser for verteporfin PDT (689 nm). Verteporfin was injected intravenously at a dose of 6 mg/m^2. […] Three to four hours later, the treated animals were again dilated and anesthetized, then electroretinograms (ERGs) were evaluated in each eye.
ERGs are collected non-invasively by measuring mass-cell response arising due to retinal activity proceeding from a light stimulus. The first cells stimulated by a flash light stimulation are the photoreceptors at the outer retinal layer. This response is measured as an a-wave. As the signal is transduced to inner retinal neurons, a b-wave is produced. The a-wave reflects activity in the photoreceptors and the b-wave reflects activity in both photoreceptors and bipolar cells.
Before being subjected to the ERG test, the rats were placed in the dark (dark-adapted) for 15 minutes. Two types of ERG apparatus were used to generate the results below. In the initial brimonidine experiment, each eye was evaluated separately. A Grass photostimulator was placed 10 cm from the recording eye and flashed a single white flash lasting 10 microseconds. A gold corneal ring electrode with a reference electrode attached to the lower eyelid detected retinal responses. For the AGN 199960 experiments, a Ganzfeld dome was used to generate a single flash and sensitive bipolar corneal electrodes were placed on both eyes, thus allowing simultaneous ERGs to be done. A cushioning agent on the cornea (methylcellulose) was used in each case, and the responses were amplified and stored in a computer. The results reported are a-wave amplitudes, which appear to be the ERG parameter most affected in clinical PDT. […] has the following structure: [drawing 3]

[2] = system: CNV; conditions: FIG. 1B
[3] = system: wet age-related macular degeneration patient
Procedure: A patient presents with “wet” age-related macular degeneration (ARMD) in the foveal region of the right eye, and their condition is found to be suitable for photodynamic therapy (PDT). For one week prior to the date of scheduled treatment, the patient is given a topical dosage of brimonidine twice a day in a standard formulation.
The day of scheduled PDT treatment, the patient is administered 6 mg/M^2 of verteporfin. Fifteen minutes after the start of the infusion, the patient is administered Irradiance of 600 mW/cm^2 and total fluence of 50 Joules/cm^2 from an Argon light laser.
Brimonidine administration is continued every two days throughout the 12 week evaluation period.
Evaluation of neural health is assayed 1 week, 4 weeks, and 12 weeks following treatment by visual inspection of the retina and test of visual acuity.

[4] = system: retina; conditions: cited from earlier work

O=C1c2ccccc2CCC1Cc1c[nH]c(=S)[nH]1 (centres unmarked) [AGN 960]
A Wave Amplitude PDT Eye ([1]; 300 ug/kg i.p. 1 hour prior to PDT, Ganzfeld dome): 212 ± 16 uV | A Wave Amplitude % Control ([1]; 300 ug/kg i.p. 1 hour prior to PDT): 101 ± 13* % | A Wave Amplitude Control Eye ([1]; 300 ug/kg i.p., Ganzfeld dome): 218 ± 29 uV | loss in retinal function induced by PDT [1]: inhibited

Brc1c(NC2=NCCN2)ccc2nccnc12 [Brimonidine]
area of ablation of CNV following PDT [2]: does not affect | visual acuity ([3]; 4 and 12 weeks following treatment): no discernable loss of vision | renewed neovascularization ([3]; 12 weeks following PDT treatment): No evidence | optic nerve axon loss ([3]; monitoring period up to 12 weeks): no evidence | Fluorescein angiography leakage in the treated tissue ([3]; one week after PDT and throughout the monitoring period): minimal leakage | visual inspection of the retina (whitening, edema) ([3]; topical twice a day one week before PDT, then every two days, 1 to 12 weeks after PDT): healthy with no whitening | A Wave Amplitude PDT Eye ([1]; 1000 ug/kg i.p. 1 hour prior to PDT, Grass photostimulator): 90 ± 15 uV | A Wave Amplitude % Control ([1]; 1000 ug/kg i.p. 1 hour prior to PDT): 103 ± 8* % | A Wave Amplitude Control Eye ([1]; 1000 ug/kg i.p., Grass photostimulator): 91 ± 21 uV | post PDT decrease in retinal functionality ([1]; FIG. 1A, compared to a saline control): inhibits | loss in retinal function induced by PDT [1]: inhibited

verteporfin [vertporfin]
effect of PDT on vascular outgrowth and associated edema ([4]; about 6 mg/m^2, treatment necessary every few months): effective to slow vascular outgrowth and associated edema somewhat | retinal and optic nerve damage from PDT ([4]; high doses (12 and 18 mg/m^2)): long term or permanent scarring of the retina, chronic absence of photoreceptor cells, and optic nerve atrophy
